Test results from patent US20230227547A1, “ANTIBODY-PAYLOAD CONJUGATES WITH ENHANCED DELIVERY DOMAIN AND USES THEREOF” (IPROGEN BIOTECH INC., priority 2019, published 2023).

What was measured:
T47D cells [1] = test: Anti-HER2 mAb delivery efficiency using antimicrobial peptides; assay type: cell-based, human; details: peptide conjugated to anti-HER2 mAb, 100 nM + 100 nM Z-GFP, 4 hours
Experimental: (§1) LL37 and LL37-derived peptides were produced synthetically with two additional N-terminal glycine residues (e.g. as shown in SEQ ID NO:2 compared to SEQ ID NO: 1) to enable the sortase reaction. The LL37-derived peptides (PEP#35 to #43, SEQ ID NOs: 13-21) were all dissolved at 10 mg/ml in phosphate buffer saline (PBS) at room temperature, sterile-filtered, and stored at -20° C. freezer. PEP#48 (SEQ ID: 74), PEP#49 (SEQ ID No: 75), and PEP#60 (SEQ ID NO: 105) were dissolved in 20% (v/v) acetonitrile in PBS. PEP#47 (SEQ ID NO: 96), PEP#86 (SEQ ID NO: 78), PEP#98 (SEQ ID NO: 79), PEP#99 (SEQ ID NO: 80), PEP#102 (SEQ ID NO: 82), and PEP#104 (SEQ ID NO: 84) were dissolved in DMSO. PEP#50 (SEQ ID No: 76), PEP#51 (SEQ ID No: 97), PEP#55 (SEQ ID No: 77), PEP#58 (SEQ ID No: 103), PEP#59 (SEQ ID No: 104), PEP#61 (SEQ ID No: 106), PEP#62 (SEQ ID No: 107), PEP#63 (SEQ ID No: 108), PEP#64 (SEQ ID No: 109), PEP#66 (SEQ ID No: 110), and PEP#94 (SEQ ID No: 35) were all dissolved in PBS. […] The reaction was incubated inside a 37° C. incubator for 16 hours, and then EDTA (pH 7.5) was added to 10 mM in the reaction mixture to chelate calcium and stop the reaction.
The plates were then removed from the incubator, and the culturing media was removed from the adherent cells. […] Then, the PBS wash was replaced 250 µl of fresh PBS for fluorescence microscope imaging.

T47D cells [2] = test: Anti-HER2 mAb delivery efficiency using LL37-derived peptide constructs; assay type: cell-based, human; details: peptide conjugated to anti-HER2 mAb light chain, 100 nM Ab, Z-GFP (PEP#6, 35-43) or Goat anti-human IgG-AlexaFluor 488 (PEP#6, 47-94) fluorescence microscopy
Experimental: as §1
Delivery assay: The following delivery assay method was used on the anti-HER2 mAbs conjugated to the PEP#6, #35, #36, #37, #38, #39, #40, #41, #42, and #43 described in Table 7. […] The plates were then removed from the incubator, and the culturing media was removed from the adherent cells. The adherent cells were washed gently with an equal volume of ice-cold PBS. Then, the PBS wash was replaced 250 µl of fresh PBS for fluorescence microscope imaging.
At the end of incubation, the adherent target cells were washed twice with ice-cold PBS, fixed with 2% (w/v) formaldehyde in PBS at room temperature for 15 minutes, and washed twice with PBS at room temperature. The fixed adherent target cells were then permeabilized with 0.05% (v/v) Tween-20 in PBS at room temperature for 15 minutes. The permeabilized cells were then incubated with 5% (v/v) FBS, 0.05% (v/v) Tween-20 in PBS at 37 degree Celsius incubator for 30 minutes. The secondary antibody, Goat anti-human IgG-AlexaFluor 488, was added to 5 ug/ml in 5% (v/v) FBS, 0.05% (v/v) Tween-20 in PBS, and incubated with the treated target cells at 37 degree Celsius incubator for 30 minutes. After incubation, the labelled cells were washed twice with PBS, and stored in storage buffer [5% (v/v) FBS in PBS] at 4 degree Celsius until fluorescence microscope imaging. The delivery of mAb and mAb-LL37-derived peptides were determined qualitatively by estimating the green fluorescence intensity emitted from the AlexFluor488-labelled secondary antibody bound to mAb or mAb-LL37-derived peptides.

LLGDFFRKSKEKIGKEFKRIVQRIKDFLRNLVPRTES [PEP#6 (LL37), two N-terminal glycines added for conjugation]
Delivery efficiency (T47D cells [1]): +++ (Same as LL37)
Delivery efficiency (T47D cells [2]): +++ (Same as LL37)
